Measured values published in publication PMC10319141, “Imidazoquinolines with improved pharmacokinetic properties induce a high IFNα to TNFα ratio in vitro and in vivo” (Frontiers in Immunology, 2023).
Where two headings read alike, the source gives them in different places.

Columns and labels:
[1] = Cassette bioavailability i.v., i.p., p.o. (blood and organ concentrations by HPLC-MS/MS); assay type: in vivo, C57BL/6 mice; settings: for concentration at 1440 min / Cmax: female, C57BL/6, mouse; for Cmax: 15 min after application
Description: (§1) All samples were extracted with 3 or 6 volumes acetonitrile containing terbuthylazine as an internal standard (ACN) relative to either sample weight or volume. Liquid samples (plasma, culture medium, cell suspensions in stability experiments) were diluted in either 3 (culture medium, cell suspensions) or 6 (plasma) volumes ACN, pellet and blood samples were extracted by addition of ACN followed by sonication for 5 min. Organ samples were digested with 0.5 µg/mg Proteinase K (Genaxxon) for 1 h at 50°C before being homogenized using a Fastprep FP-24 5G instrument (MP-Biomedicals). Homogenates were diluted with 6 volumes ACN and homogenized again. All extracts were cleared by centrifugation at ~20.000xg for 10 min at 4°C.
(§2) Quantification of analytes was performed on an Agilent 1260/1290 Infinity system fitted with an Agilent C18 Poroshell 120 column (4.6 x 50 mm, 2.7 µm) coupled to a triple quadrupole Sciex API 4000 MS/MS detector. The mobile phase was composed of water containing 0.1% formic acid (eluent A) and acetonitrile containing 0.1% formic acid (eluent B). Gradient used was: 5% B for 0.5 min, to 100% B in 4.5 min, 100% B for 2 min, to 5% B in 0.5 min, 5% for 2.5 min. MS detection parameters are listed in SI Table S1 .
Experimental Animals. All animal experiments were carried out in accordance with German law (35/9183.81-7/SYN 06/20). Mice, 8-18 weeks old, were purchased from Janvier Laboratories and maintained in a specific-pathogen-free animal facility with chow and water ad libitum. After arrival mice acclimated for a minimum of 7 days.
(§3) Formulation. Test compounds were prepared for application in either 1% Tween 80, 9% PEG400 in ultrapure water (Biowest) (i.v., i.p., p.o. application) or 5 mM citric acid in 0.9% saline (Braun) (subcutaneous application). If compounds were administered subcutaneously, injections were carried out into the neck crease.
(§4) Collection of Samples. Mice were bled from the tail vein at various timepoints. Heparin (Sigma) or K2-EDTA (Sigma) was added to blood samples to a final […] concentration of 10-15 Unit or 5 mM. Plasma was generated by centrifugation at 6800xg for 8 min at 4°C and stored at -80°C until analyzed by ELISA or CBA. Animals were sacrificed after the indicated time points by CO2 inhalation. Heart blood and organs for compound quantification by HPLC-MS/MS were collected post mortem and stored at –20°C until extracted as described above.
Figure 3 Stability and bioavailability of macrolide conjugates. (A) Stability of A1-mac and A2-mac was measured in human blood, U937 monocytes and RPMI medium over 24 h. […] (B) Peripheral blood was collected 15, 30 60, 120, 180, 240, 360 and 1440 min after compound administration. (C) Organs were sampled 1440 min after compound administration. (A–C) Data are presented as mean ± SD.

[2] = test system: TNFα and IFNα in peripheral plasma; assay: Cytokine profile in peripheral plasma after equimolar s.c. doses (Figure 4B, Table 2 top); assay type: in vivo, C57BL/6 mice; settings: for IFNα AUC / TNFα AUC: 8 h period, equimolar doses (top section), pooled plasma of 3 animals; for IFNα plasma levels over the study period: in words
Description: Cytokine concentrations in samples were quantified either by ELISA (hTNFα, R&D Systems; hIFNα, Mabtech) or cytometric bead arrays (CBA, LegendPlex mouse anti-virus response panel, BioLegend) according to the manufacturer’s instructions. CBAs were acquired on a ZE5 Cell Analyzer (Bio-Rad) and analyzed using the LegendPlex Software Suite (Qognit/BioLegend). Absorbance of ELISA-samples was quantified using a Versamax microplate reader (Molecular Devices).
as §3, §4
(A) Organs were sampled 8 h after treatment and compound concentration was determined via HPLC-MS/MS. Data are presented as mean ± SD. (B) Cytokine levels in tail plasma over time were determined via cytometric bead array. At each sampling timepoint the plasma of mice in one treatment group was pooled.

[3] = Compound concentrations in organs and plasma after three consecutive daily s.c. treatments (Figure 6B, S7); assay type: in vivo, mice; settings: for compound plasma level at peak: s.c.; for concentration at 4 h / concentration at 28 h / concentration at 52 h: mouse, liver, sc, read-out: concentration in liver; for concentration at 4 h / concentration at 28 h / concentration at 52 h / levels in brain tissue / concentration in liver: repeated daily s.c. treatment; for levels in brain tissue: in words
Description: as §1, §2, §3, §4
Dotted lines indicate the time of repeated compound applications. (A) Cytokine levels in pooled tail plasma of mice from individual treatment groups (n=3 per pool and time point), error bars represent range of two replicate measurements. (B) Peripheral blood was collected from the tail vein before, 15, 30 60, 120, 240, 360 and 480 min after s.c. treatment. Compound concentration in peripheral plasma was analyzed by HPLC-MS/MS, data presented as mean ± SD.
Samples were collected 4 h, 28 h and 52 h after s.c. treatment. Skin samples were sampled
at time points 4 h and 52 h. Compound concentrations were analyzed by HPLC-MS/MS, data

[4] = kidney, ip, i.p. 2 mg/kg, organs sampled 1440 min after administration, read-out: concentration in kidney
[5] = liver, ip, i.p. 2 mg/kg, organs sampled 1440 min after administration, read-out: concentration in liver
[6] = whole blood (tail vein), iv, i.v. 0.5 mg/kg, tail vein blood
[7] = day 1, 60 min after application
[8] = day 2, 60 min after application
[9] = day 3, 60 min after application

SMILES | concentration at 1440 min [1, 4] [nM] | concentration at 1440 min [1, 5] [nM] | Cmax [1, 6] [nM] | Cmax ([1]; whole blood, ip, i.p. 2 mg/kg) [nM] | Cmax ([1]; whole blood, po, p.o. 2 mg/kg) [nM] | IFNα AUC ([2]; 3 µmol/kg s.c.) [pg·min/mL] | TNFα AUC ([2]; 3 µmol/kg s.c.) [pg·min/mL] | IFNα AUC ([2]; 6 µmol/kg s.c.) [pg·min/mL] | TNFα AUC ([2]; 6 µmol/kg s.c.) [pg·min/mL] | IFNα AUC ([2]; 12 µmol/kg s.c.) [pg·min/mL] | TNFα AUC ([2]; 12 µmol/kg s.c.) [pg·min/mL] | time of TNFα plasma peak post treatment ([2]; 3, 6, 12 µmol/kg s.c.) [min] | IFNα plasma levels over the study period ([2]; 3, 6, 12 µmol/kg s.c.) | compound plasma level at peak [3, 7] | compound plasma level at peak [3, 8] | compound plasma level at peak [3, 9] | concentration at 4 h ([3]; after 4 h) [nM] | concentration at 28 h ([3]; after 28 h) [nM] | concentration at 52 h ([3]; after 52 h) [nM] | levels in brain tissue [3] | other results
CCCCc1nc2c(N)nc3ccccc3c2n1CCC1CCN(C(=O)CN(C)CC(=O)N(C)C2CC(C)OC(OC3C(C)C(OC4CC(C)(OC)C(O)C(C)O4)C(C)C(=O)OC(CC)C(C)(O)C(O)C(C)N(C)CC(C)CC3(C)O)C2O)CC1 (stereo not drawn) [A1-mac] | 586 | 3390 | 392 | 299 | 28 | 420000 | 6900 | 920000 | 24000 | 3.1e+06 | 76000 | 90 | stayed elevated over the 8 h period | 755 nM | 585 nM | 639 nM | 2620 | 4460 | 6350 | baseline or close to baseline levels | 
CCCCc1nc2c(N)nc3ccccc3c2n1CCC1CCNCC1 [A1] |  |  |  |  |  | 660000 | 6500 | 1.3e+06 | 17000 | 2.5e+06 | 35000 | 120 | stayed elevated over the 8 h period | 171 nM | 85 nM | 66 nM | 63 | 82 | 94 | baseline or close to baseline levels | 
CCCCc1nc2c(N)nc3ccccc3c2n1CC1CCN(C(=O)CN(C)CC(=O)N(C)[C@H]2C[C@@H](C)O[C@@H](O[C@@H]3[C@@H](C)[C@H](O[C@H]4C[C@@](C)(OC)[C@@H](O)[C@H](C)O4)[C@@H](C)C(=O)O[C@H](CC)[C@@](C)(O)[C@H](O)[C@@H](C)N(C)C[C@H](C)C[C@@]3(C)O)[C@@H]2O)CC1 [A2-mac] | 449 | 2520 | 352 | 138 | 22 |  |  |  |  |  |  |  |  |  |  |  |  |  |  |  | 
CCOCc1nc2c(N)nc3ccccc3c2n1CC(C)(C)O [RSQ, Resiquimod, reference compound] |  |  | 854 | 123 | 41 | 2.2e+06 | 330000 | 780000 | 280000 | 800000 | 260000 | 90 |  | < LLOQ | < LLOQ | < LLOQ |  |  |  | baseline or close to baseline levels | concentration in liver ([1]; i.p. 2 mg/kg, organs sampled 1440 min after administration): < LOD; TNFα plasma AUC, times larger than the area for any A1 or A1-mac treated group ([2]; 3 µmol/kg RSQ s.c.): about 4 times; peak TNFα concentrations, times higher than in A1 or A1-mac groups ([2]; 3, 6, 12 µmol/kg s.c.): over 10 times; time at which TNFα and IFNα plasma levels fall close to baseline ([2]; 3, 6, 12 µmol/kg s.c.): 240 min; time of IFNα plasma peak post treatment ([2]; 3, 6, 12 µmol/kg s.c.): 90 min; time of maximal IFNα plasma levels post application ([2]; abstract, in vivo murine): 1 h; concentration in liver ([3]; after 4 h): < LLOQ; concentration in liver ([3]; after 28 h): < LLOQ; concentration in liver ([3]; after 52 h): < LLOQ
